Consider 14 compounds from ChEMBL document CHEMBL1153343, “Liver X receptor agonists with selectivity for LXRbeta; N-aryl-3,3,3-trifluoro-2-hydroxy-2-methylpropionamides” (Bioorg Med Chem Lett, 2009).

Series [1] concerns the target T1, Oxysterols receptor LXR-beta (Homo sapiens, UniProt P55055).
T1 sequence (P55055 whole entry): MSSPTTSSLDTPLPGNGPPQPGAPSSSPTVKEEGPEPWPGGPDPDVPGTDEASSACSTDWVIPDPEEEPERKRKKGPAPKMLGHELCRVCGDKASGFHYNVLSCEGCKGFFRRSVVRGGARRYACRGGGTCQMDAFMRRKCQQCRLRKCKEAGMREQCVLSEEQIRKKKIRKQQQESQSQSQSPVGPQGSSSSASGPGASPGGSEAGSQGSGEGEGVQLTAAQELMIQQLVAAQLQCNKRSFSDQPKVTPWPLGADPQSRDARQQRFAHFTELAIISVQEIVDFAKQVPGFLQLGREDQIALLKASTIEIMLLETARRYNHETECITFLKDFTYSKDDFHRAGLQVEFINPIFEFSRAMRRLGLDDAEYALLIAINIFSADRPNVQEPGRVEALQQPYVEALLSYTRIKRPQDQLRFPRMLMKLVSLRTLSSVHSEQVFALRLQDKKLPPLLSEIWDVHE
As to the kind of experiment: Agonist activity at human LXRbeta expressed in human SH-SY5Y cells co-transfected with Gal4-LBD after 24 hrs by luciferase reporter gene assay. The series is classed as functional, cell-based. (Reporter assays use an easily measured gene product as a stand-in for the process of interest.)

The target in series [2] is T2, Oxysterols receptor LXR-alpha (Homo sapiens, UniProt Q13133).
T2 sequence (Q13133 whole entry): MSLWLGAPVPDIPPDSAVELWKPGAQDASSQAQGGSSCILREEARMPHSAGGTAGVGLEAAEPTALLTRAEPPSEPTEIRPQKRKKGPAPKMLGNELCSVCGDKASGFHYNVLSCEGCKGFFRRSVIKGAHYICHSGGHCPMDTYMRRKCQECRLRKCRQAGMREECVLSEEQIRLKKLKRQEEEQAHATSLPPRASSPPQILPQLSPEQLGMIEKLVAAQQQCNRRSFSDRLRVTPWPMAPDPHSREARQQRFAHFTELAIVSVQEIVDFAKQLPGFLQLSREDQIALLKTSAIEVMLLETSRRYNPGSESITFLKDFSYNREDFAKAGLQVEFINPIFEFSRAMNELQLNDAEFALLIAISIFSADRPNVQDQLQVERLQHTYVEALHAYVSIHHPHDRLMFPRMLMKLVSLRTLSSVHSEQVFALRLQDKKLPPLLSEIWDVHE
As to the kind of experiment: Agonist activity at human LXRalpha expressed in human SH-SY5Y cells co-transfected with Gal4-LBD after 24 hrs by luciferase reporter gene assay. The series is classed as functional, cell-based.

The target of series [3] is T1, Oxysterols receptor LXR-beta. As to the kind of experiment: Agonist activity at LXRbeta ligand binding domain by FRET based SRC1 recruitment assay.
The target in series [4] is T2, Oxysterols receptor LXR-alpha. Put plainly: Agonist activity at LXRalpha ligand binding domain by FRET based SRC1 recruitment assay.
For series [5], the target named is T3, Oxysterols receptor LXR-beta (Homo sapiens) (UniProt P55055).
T3 sequence (whole entry): T1 sequence (P55055 whole entry)
Put plainly: Agonist activity at human LXRbeta expressed in human U2OS cells co-transfected with Gal4-LBD after 24 hrs by luciferase reporter gene assay. The series is classed as functional, cell-based.

The target in series [6] is T4, Oxysterols receptor LXR-alpha (Homo sapiens) (UniProt Q13133).
T4 sequence (whole entry): T2 sequence (Q13133 whole entry)
Put plainly: Agonist activity at human LXRalpha expressed in human U2OS cells co-transfected with Gal4-LBD after 24 hrs by luciferase reporter gene assay. The series is classed as functional, cell-based.

Series [7] in a line: Permeability across human Caco-2 cell membrane. Format: ADME, cell-based. As to conditions: read-out: permeability. In general terms: Caco-2 cells form a polarised layer with tight junctions and transporters.
For series [8], the system named is Mus musculus. Put plainly: Upregulation of SREBP-1c mRNA level in mouse liver at 30 umol/kg, po daily once after 3 days relative to control. The series is classed as functional.
The nature of series [9]: Half life in po dosed rat. Format: ADME, organism-based. The note with it: in vivo.
Series [10] is described as follows: Clearance in po dosed rat. The series is classed as ADME, organism-based. The note with it: in vivo.
Series [11] in a line: Bioavailability in rat. Format: ADME, organism-based. The note with it: in vivo.
For series [12], the system named is Mus musculus. Put plainly: Upregulation of SREBP-1c mRNA level in mouse liver at 1.0 umol/kg, po daily once after 3 days relative to control. The series is classed as functional.
Series [13] relates to Mus musculus. Put plainly: Upregulation of ABCG1 mRNA level in mouse brain homogenates at 30 umol/kg, po daily once after 3 days relative to control. The series is classed as functional.
A short description of series [14]: Solubility in 0.1 M phosphate buffer at pH 7.4 at 100 uM after 24 hrs by UV-TIC. The series is classed as physicochemical.
Series [15] deals with Mus musculus. As to the kind of experiment: Upregulation of ABCA1 mRNA level in mouse brain homogenates at 30 umol/kg, po daily once after 3 days relative to control. Format: functional.
The subject of another series is Rattus norvegicus. As to the kind of experiment: Volume of distribution in po dosed rat. The series is classed as ADME, organism-based. The note with it: in vivo.

Each structure is given as a SMILES string. Converted amounts (≈) assume the structure as drawn. The source made the active and inactive calls. The calls are words filed in the database; no cut-off is given here. Some results are limits rather than exact numbers.

Take `CN(c1ccc(NC(=O)[C@](C)(O)C(F)(F)F)c(Cl)c1)S(=O)(=O)c1ccccc1`: the 50% effective concentration (EC50) came out at 959 nM in [1], 5000 nM in series [2], 1900 nM in series [3] and 3300 nM in series [4].

In the case of `CN(c1ccc(NC(=O)C(C)(O)C(F)(F)F)c(Cl)c1)S(=O)(=O)c1ccc(CCC(=O)O)cc1` (stereo not drawn), the EC50 in series [1] was above 30000 nM; in series [2], above 30000 nM; in [3], above 100000 nM; in [4], above 100000 nM.

With `CN(c1ccc(NC(=O)C(C)(O)C(F)(F)F)c(Cl)c1)S(=O)(=O)c1ccc(C(=O)O)cc1` (stereo not drawn), the EC50 was above 30000 nM in series [1], above 30000 nM in series [2], above 100000 nM in series [3] and above 100000 nM in series [4].

Take `C[C@H](CC[C@@H]1OC1(C)C)[C@H]1CC[C@H]2[C@@H]3CC=C4C[C@@H](O)CC[C@]4(C)[C@H]3CC[C@]12C` [24(S),25-EPOXYCHOLESTEROL]: the EC50 in series [1] was determined as 400 nM; in series [3], 286 nM; in series [4], 280 nM.

On to `CC(O)(C(=O)Nc1ccc(N(Cc2ccccc2)S(=O)(=O)c2ccccc2Cl)cc1Cl)C(F)(F)F` (stereo not drawn), for which the EC50 in series [1] was above 30000 nM; in series [2], above 30000 nM; in series [3] it was 880 nM; in series [4] it was above 100000 nM.

As to `C=CCN(c1ccc(NC(=O)C(C)(O)C(F)(F)F)c(Cl)c1)S(=O)(=O)c1ccccc1Cl` (stereo not drawn), the EC50 in series [1] was above 30000 nM; in [2], above 30000 nM; in series [3] it was 580 nM; in series [4], 470 nM.

Regarding `CCN(c1ccc(NC(=O)C(C)(O)C(F)(F)F)c(Cl)c1)S(=O)(=O)c1ccccc1Cl` (stereo not drawn), the EC50 in series [1] was found to be 7500 nM; in series [2], 8500 nM; in [3], 790 nM; in series [4], 1000 nM.

As to `O=C(O)Cc1cccc(OCCCN(Cc2cccc(C(F)(F)F)c2Cl)CC(c2ccccc2)c2ccccc2)c1`, the EC50 in [1] amounted to 130 nM; in series [2], 310 nM; in series [3], 78 nM; in [4] it was 280 nM.

As for `Cc1ccc(S(=O)(=O)N(C)c2ccc(NC(=O)[C@](C)(O)C(F)(F)F)c(Cl)c2)cc1`, the half-maximal effective concentration (EC50) in [1] was found to be 1590 nM; in series [2], 5000 nM; in series [3] it was 1500 nM; in [4], 1970 nM.

As to `CN(c1ccc(NC(=O)[C@](C)(O)C(F)(F)F)c(Cl)c1)S(=O)(=O)c1ccccc1Cl`, the EC50 stood at 813 nM in [1], 1820 nM in [2] and 626 nM in [3]. Moreover, the outcome in series [5] and in [6] was inactive.

`CC(O)(C(=O)Nc1ccc(N(CC2CC2)S(=O)(=O)c2ccccc2Cl)cc1Cl)C(F)(F)F` (stereo not drawn): the concentration giving a half-maximal response (EC50) in [1] was above 30000 nM; in series [2], above 30000 nM; in [3], 940 nM; in series [4] it was 1080 nM.

For the compound `CN(c1ccc(NC(=O)C(C)(O)C(F)(F)F)c(Cl)c1)S(=O)(=O)c1ccc(C#N)cc1` (stereo not drawn), the concentration for a half-maximal effect (EC50) amounted to 2700 nM in series [1], 5000 nM in [2], 2600 nM in series [3] and 3400 nM in series [4]. Further, the Papp in series [7] is 28 ×10⁻⁶ cm/s. In addition, the “fold change (FC)” value in the series with Mus musculus [8] is on record as 1.3; in the series with Mus musculus [12], 3.6; in the series with Mus musculus [13] it was 1.3; with Mus musculus [15], 1.25. In series [9], this compound showed a half-life of 4.4 h. Moreover, the result in series [5] and in series [6] was inactive. Further, the apparent clearance (CL/F) in series [10] was found to be 24.6 mL/min/kg. The compound further displayed a bioavailability in series [11] of 39%. In addition, the solubility at 24 h, 100 µM in series [14] stood at 61 µM (≈ 28.2 µg/mL). In the series on Rattus norvegicus, the Vd was determined as 4.1 L/kg.

`COC(=O)CCc1ccc(S(=O)(=O)N(C)c2ccc(NC(=O)C(C)(O)C(F)(F)F)c(Cl)c2)cc1` (stereo not drawn): the EC50 in series [1] was above 30000 nM; in [2], above 30000 nM; in series [3], 3500 nM; in series [4], 3500 nM.

With `COC(=O)c1ccc(S(=O)(=O)N(C)c2ccc(NC(=O)C(C)(O)C(F)(F)F)c(Cl)c2)cc1` (stereo not drawn), the EC50 was determined as 3810 nM in series [1], 3610 nM in [2], 2320 nM in series [3] and 3100 nM in [4].

The EC50 is the concentration at which the effect is half-maximal. In general, half-life refers to how long it takes for the measured level to halve. Read a high half-life as slow decline. The CL/F is clearance divided by bioavailability, as obtained after extravascular dosing. The bioavailability is the share of a dose that reaches the circulation, judged against a reference dose that is usually intravenous. Read a high bioavailability as good availability. The solubility is how much of the substance goes into solution per volume.
